Data on four molecules can be found in patent publication US20250066420A1, “PD-L1 INHIBITORY PEPTIDE FOR CANCER IMMUNOTHERAPY” (Kansas State University Research Foundation, priority 2021, published 2025).

Data set [1] has as its system H1299 human non-small cell lung carcinoma cell line. Description: Co-culture of H1299 cell antigen-specific T cells with H1299 lung cancer cells, cell death by flow cytometry. Format: cell-based. The note with it: for cell death in H1299 cells: antigen-specific T cell co-culture, 48 hours. The text has this:
(§1) • H1299 human non-small cell lung carcinoma cell line (ATCC) • Jurkat cells (Human T lymphoblasts, ATCC) • Primary cultured murine CD8^+ T cell primed with H1299 cell lysate (H1299 cell antigens)
Mice were immunized with H1299 cells via tail vein injection. T cells were extracted from spleen, purified, and expanded by co-culturing with dendritic cells (DCs) stimulated with H1299 cell lysate. Expanded T cells were used in co-culture assay.
(Flow cytometry measures light scatter and fluorescence of single cells or particles in a stream.)

Data set [2] has the same test system. Description: Co-culture of activated Jurkat cells with H1299 lung cancer cells, cell death by flow cytometry. It is filed as cell-based. The conditions noted are these: for cell death in H1299 cells: Jurkat co-culture, 48 hours; for increase in cell death in H1299 cells: co-cultured with nonspecifically activated Jurkat cells, preliminary data. The procedure: as §1
Co-culture assay procedure. Dead cell populations were measured by flow cytometry at 48 hours post-co-culture using propidium iodide (PI) staining.

Data set [3] has as its system CT26 murine colon carcinoma cells. Description: T cell-induced death of CT26 cells in co-culture with antigen-primed CD8+ T cells (flow cytometry). The note with it: peptide 10 μM, CT26:T cell 1:16. It is filed as cell-based, mouse. The procedure: a. Generation of CT26 cell antigen-specific CD8^+ T cells in vivo: First, the mice were subcutaneously (SQ) injected with CT26 cell lysate (0.5×10^6 cells/mouse in 200 μl PBS) at Day 0. JAWSII immature dendritic cells and CT26 cells previously irradiated with an X-ray dose of 100 Gy were cocultured at a 1:1 ratio for 48 h with an additional treatment of LPS (1 μg/ml). The cells (0.5×10^6 cells/mouse in 200 μl PBS) were collected and administered IV via tail vein to the mice at Day 7. At Day 21, the splenocytes were harvested and the CT26 antigen-specific CD8^+ T cells were labeled using MojoSort™ Mouse CD8 T Cell Isolation Kit (Biolegend, San Diego, CA) and isolated using magnetic beads-based separation protocol with MACS® Column (Miltenyi Biotec, Bergisch Gladbach, Germany) according to the manufacturer's instructions.
b. Evaluation of T cell-induced death of colon carcinoma cells in co-culture: Permanently GFP-expressing CT26 cells (GFP-CT26) produced by GFP-lentivirus vector transduction were seeded into 12 well-plate (1×10^4 cells/well) in the presence of murine interferon gamma (mIFNγ) at 25 ng/ml for 24 h. […] The effect of PD-L1ip3 in peptide form or gene transduction by Ad-PD-L1ip3 on CT26 cell death was analyzed by flow cytometry using LIVE/DEAD™ Fixable Violet Dead Cell Stain Kit (Invitrogen Corp). […]

The test system of the next data set is CT26 cell tumors. Nature of the data set: CT26 subcutaneous allograft tumor growth in Balb/c mice. It is filed as in vivo, mouse. The procedure:
The anti-tumor effect of Ad-PD-L1ip3 and PD-L1ip3 in peptide form was evaluated in Balb/c mice using a CT26 murine colon carcinoma allograft model. The CT26 cells were transduced with 100 MOI of Ad-PD-L1ip3 or Ad-PD-L1ip3SC. At 24 h after transduction, the cells were suspended into 0.6% agarose dissolved in RPMI 1640. After filling agarose-cell mixture into 1 ml syringe equipped with 27G needle, it was solidified on ice. Mice were anesthetized with isoflurane and injected subcutaneously into the back with a 5×10^5 CT26 cells in 50 μl cell-agarose mixture. The intraperitoneal administration of PD-L1ip3 peptide (10 mg/kg) was carried out at 1 week after CT26 inoculation for 13 days (every day, totaling 13 injections). The PBS control was injected intraperitoneally with the same schedule. For the pre-immunization study, CT26 lysate (1×10^6 cells/100 μl PBS) were injected subcutaneously, 3 times with 1-week interval. The CT26 lysate was made by 3 times freeze-thaw cycles using liquid nitrogen. The mouse body weights were monitored at 2-day intervals. All mice were sacrificed […] after CT26 inoculation by cervical dislocation after exposure to saturated C02. The tumor size was measured by caliper every 2 days and the volume was calculated using the formula 0.5×(short diameter)^2×(long diameter). The tumors were weighed and fixed in 10% formalin for histological analysis.

The test system of data set [4] is murine LLC lung carcinoma cells. Description: Cytotoxicity of antigen-primed CD8+ T cells toward LLC cells in co-culture. Format: cell-based, mouse. The note with it: 10 μM, 1:16 ratio, 18 and 36 hrs; positive control anti-PD-L1 antibody. The procedure: Generation of LLC cell antigen primed CD8^+ T cells in vivo: Mice were subcutaneously injected with LLC lysate (0.5×10^6 cells/mouse in 100 μl) at Day 0. X-ray (100 Gy) irradiated LLC cells were cocultured with JAWSII immature dendritic cells (JAWS-irrLLC) at a 1:1 ratio for 48 hrs in the presence of LPS (1 μg/ml). The cells were then intravenously injected into mice via tail vein (0.5×10^4 cells/mouse in 200 μl) at Day 7. At Day 21, the splenocytes were harvested and CD8^+ T cells (AP-CD8^+ T cells) were isolated using commercially available isolation kit.
Evaluation of T cell-induced death of lung carcinoma cells in co-culture: Permanently GFP-expressing LLC cells (1×10^4 cells) were treated with murine IFNγ (25 ng/ml) for 48 hrs. The cells were treated with 10 μM PD-L1ip3. PD-L1ip3SC (10 μM) and mouse anti-PD-L1 antibody (αPD-L1: 0.5 or 1.0 μg/ml) were used as control. The cells were then cocultured with antigen primed CD8^+ T cells 1:16 ratio. The cytotoxicity of AP-CD8^+ T cells toward LLC cells at 18 and 36 hrs after coculture was determined by flow cytometry.

For data set [5], the system named is CT26 murine colon carcinoma cells. Description: MTT viability of CT26 cells without T cells. Format: cell-based, mouse. The protocol: Evaluation of the Effect of PD-L1ip3 Peptide or Gene Transduction by Ad-PD-L1ip3 on Murine Colon Carcinoma Cells in Cell Culture The CT26 murine colon carcinoma cells (1,000 cells/well) were seeded into 96-well plate.
After 24 h, these cells were treated directly with PD-L1ip3 in peptide form (0.1-10 μg/ml) or indirectly with the PD-L1ip3 gene by Ad-PD-L1ip3 transduction (10, 20 and 50 MOI). The growth of the cells was evaluated by MTT assay 24-72 h after the treatments as described previously.
To evaluate therapeutic potential and cytotoxicity of the PD-L1ip3 peptide and transduction by Ad-PD-L1ip3, cell viability of CT26 cells was analyzed using MTT assay in the presence of mIFNγ (25 ng/ml), which was used to increase PD-L1 expression in cancer cells. The scrambled sequence version of PD-L1ip3 (PD-L1ip3SC) and the adenovirus carrying the corresponding scrambled sequence gene (Ad-PD-L1ip3SC) were used as negative controls.

The target in another data set is T1, human PD-L1 (Homo sapiens, UniProt Q9NZQ7).
T1 construct: biotin (biotinylated); purchased R&D Systems (Minneapolis, Minnesota)
Description: Bio-layer interferometry binding to biotinylated PD-L1. The conditions noted are these: read-out: dissociation constant KD. The protocol: (§2) For each experiment, the BLItz machine was fitted with a fresh streptavidin biosensor tip (FortéBio). All tips were solvated in PBS buffer for 15-30 min before the experiments. The peptide was solvated at a concentration of approximately 1 mg/ml. The precise concentration of this stock solution (0.922 mg/ml) was obtained using the Pierce BCA Protein Assay Kit (Thermo Fisher Scientific) and multiple dilutions were made (corresponding to […]). A solution of biotinylated PD-L1 was applied to the biosensor tip during the loading phase of each experiment. PBS buffer (ix) was used for the baseline.
A general note: In BLI a coated tip is dipped into the sample, and binding shifts an interference pattern.

Data set [6] addresses T2, Biotinylated human PD-L1 (R&D Systems) (human, UniProt Q9NZQ7 19-239, limits assumed, biotinylated (site not stated)).
T2 construct: Bought reagent, loaded on a streptavidin biosensor tip for bio-layer interferometry
Description: bio-layer interferometry (BLItz), biotinylated PD-L1 on streptavidin tip, peptide in solution; negative control; scrambled peptide, negative control. The procedure:
as §2
The peptide was synthesized commercially and the dissociation constant was determined by bio-layer interferometry.

Setting [7] is: peptide form 0.1-10 μg/ml, mIFNγ 25 ng/ml, 24-72 h, no T cells.

As usually defined, the Kd is the free concentration of one partner at which half of the binding sites on the other are occupied at equilibrium, for simple one-to-one binding.

“Also recorded” adds a separate entry of the source.

T2 sequence (Q9NZQ7 19-239 limits assumed): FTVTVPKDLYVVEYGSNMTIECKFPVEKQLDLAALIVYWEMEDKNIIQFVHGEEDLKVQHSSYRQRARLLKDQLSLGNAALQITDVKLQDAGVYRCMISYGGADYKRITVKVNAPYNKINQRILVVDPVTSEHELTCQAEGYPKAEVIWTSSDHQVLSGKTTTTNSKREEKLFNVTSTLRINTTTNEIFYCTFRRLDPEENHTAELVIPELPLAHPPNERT

Consider H-GTRLKPLIICVQWPGL-OH [PD-L1ip3], for which the “cell death in H1299 cells” value in data set [1] is “clear increases of cell death”; in data set [2] it was “only minor increases of cell death”. The “increase in cell death in H1299 cells” value in data set [1] (co-cultured with H1299 cell antigen-primed T lymphocytes) was 50%; in data set [2], 30%. Besides, the “T cell-induced cell death of CT26 cells vs PBS” value in data set [3] was “markedly increased”. Besides, in the data set on CT26 cell tumors (mice pre-treated with CT26 cell lysate 3 times, Ad 100 MOI, peptide 10 mg/kg/day i.p., untreated 729.6±310.3), the average tumor volume amounted to 607.5±220.1 mm^3. In the data set on CT26 cell tumors (no lysate pretreatment), the “change in tumor growth vs untreated CT26 cells” value is “nor PD-L1ip3 in peptide form alone showed a statistically significant change in tumor growth”. The “cytotoxicity of antigen-specific CD8+ T cells toward LLC cells” value in data set [4] was “Increased; also recorded: as good as or better than the positive control”. For the same molecule, the “viability of CT26 cells (MTT)” value in data set [5] (setting [7]) was “not affected”. At human PD-L1, the dissociation constant Kd is 0.033 ± 0.003 mM.

As for “H-VLIKIPWLRLPGCGTQ-OH [PD-L1ip3SC, reference compound]”, in data set [2], the “cell death in H1299 cells” value is reported as “only minor increases of cell death” and the “increase in cell death in H1299 cells” value was found to be 30%. The “viability of CT26 cells (MTT)” value in data set [5] (10 μg/ml, 72 h, not significantly different from PBS) is given as “slight decrease of cell viability”. Moreover, the “viability of CT26 cells (MTT)” value in data set [5] (setting [7]) is listed as “not affected”.

As to PLDIRDRVHVEKSAAS [PD-L1ip4], the “cell death in H1299 cells” value in data set [1] and in data set [2] was “did not alter T cell-dependent death” throughout.

B1: PD-L1ip3SC (scrambled analogue of PD-L1ip3) (peptide)
peptide: VLIKIPWLRLPGCGTQ
notes: Negative control in BLI; also called scrambled peptide
Turning to B1, in data set [6], the Kd is roughly 50 mM.
